Patent US8158623B2, “Heptacyclic compounds and the pharmaceutical uses thereof for preventing and treating diabetes and metabolic syndrome” (Shanghai Institute of Materia Medica Chinese Academy of …, priority 2007, dated 2012)

Test system: diet-induced obese (DIO) mice
Assay: Effect of F7 on body weight of diet-induced obese mice
Type: in vivo, C57BL/6J mice
Conditions: for Body weight: oral 50 mg/kg daily; for Body weight reduction compared with the model control group: oral 50 mg/kg
Method: Male C57BL/6J mice were maintained a SPF facility (temperature: 22-24° C., humidity: 45-80%, illumination: 150-300 Lx, 12/12-hour light/dark cycle). When the mice were 4 weeks old, they were fed with a high-fat diet (purchased from Research Diets Inc. (USA), D12492i, fat content is 60%). After 12 weeks, diet-induced obese (DIO) mice model was established. Another group of mice fed with normal diet (D12450Bi, fat content is 10%) was used as a normal control group. The DIO mice were divided into two group according to body weights, and administrated orally F7 (50 mg/kg) or 0.1% Tween80 (the model control group) respectively, every afternoon just before black out for 5 weeks. The body weights of mice were measured daily, and the effect of Compound F7 on body weight was observed.

Which Body weight (0 day) does the source give for COc1cc(C(=O)O)c2c(c1C)OC(=O)c1c(C)cc(O)c(C=O)c1O2 [Compound F7, 4-Formyl-3-hydroxy-8-methoxy-1,9-dimethyl-11-oxo-11H-dibenzo[b,e][1,4]dioxepine-6-carboxylic acid] here?
Its Body weight is 39.2 ± 3.8 g.

And the Body weight (7 day)?
The Body weight was 36.4 ± 3.8 g.

And the Body weight (14 day)?
Its Body weight is 36.5 ± 4.2 g.

And the Body weight (21 day)?
The Body weight was 36.2 ± 3.9 g.

What about the Body weight (28 day) of the same compound?
Its Body weight is 36.1 ± 2.6 g.

What about the Body weight (35 day) of the same compound?
The Body weight was 35.8 ± 2.0 g.

What about the “Body weight reduction compared with the model control group” value (1 week after administration) of the same compound?
The value was 2 g.

What about the “Body weight reduction compared with the model control group” value (5 weeks after administration) of the same compound?
The value was 4.5 g.
